This is an account of results in PubChem BioAssay AID1259407 (Chemical Carcinogenesis Research Information System (CCRIS), 2018).

Active and inactive are the calls of the source. No rule for the calls is given here.

For the series, the system named is CCRIS mutagenicity, Ames/micronucleus/aberration tests. Briefly: CCRIS mutagenicity studies.
Setting [1] is: Test System: AMES SALMONELLA TYPHIMURIUM, Strain/Indicator: TA98, Metabolic Activation: NONE, Method: PREINCUBATION
Setting [2] is: Test System: AMES SALMONELLA TYPHIMURIUM, Strain/Indicator: TA102, Metabolic Activation: NONE, Method: PREINCUBATION
Setting [3] is: Test System: AMES SALMONELLA TYPHIMURIUM, Strain/Indicator: TA98, Metabolic Activation: NONE, Method: STANDARD PLATE.
The mark [4] stands for this setting: Test System: AMES SALMONELLA TYPHIMURIUM, Strain/Indicator: TA100, Metabolic Activation: NONE, Method: STANDARD PLATE.
The mark [5] stands for this setting: Test System: AMES SALMONELLA TYPHIMURIUM, Strain/Indicator: TA100, Metabolic Activation: RAT, LIVER, S-9, AROCLOR 1254, Method: STANDARD PLATE.
The mark [6] stands for this setting: Test System: AMES SALMONELLA TYPHIMURIUM, Strain/Indicator: TA1535, Metabolic Activation: NONE, Method: STANDARD PLATE.
Where [7] appears, read: Test System: AMES SALMONELLA TYPHIMURIUM, Strain/Indicator: TA1535, Metabolic Activation: RAT, LIVER, S-9, AROCLOR 1254, Method: STANDARD PLATE.
The mark [8] stands for this setting: Test System: AMES SALMONELLA TYPHIMURIUM, Strain/Indicator: TA1537, Metabolic Activation: NONE, Method: STANDARD PLATE.
[9] abbreviates: Test System: AMES SALMONELLA TYPHIMURIUM, Strain/Indicator: TA1537, Metabolic Activation: RAT, LIVER, S-9, AROCLOR 1254, Method: STANDARD PLATE.
The mark [10] stands for this setting: Test System: AMES SALMONELLA TYPHIMURIUM, Strain/Indicator: TA1538, Metabolic Activation: NONE, Method: STANDARD PLATE.
Where [11] appears, read: Test System: AMES SALMONELLA TYPHIMURIUM, Strain/Indicator: TA1538, Metabolic Activation: RAT, LIVER, S-9, AROCLOR 1254, Method: STANDARD PLATE.
Where [12] appears, read: Test System: AMES SALMONELLA TYPHIMURIUM, Strain/Indicator: TA98, Metabolic Activation: RAT, LIVER, S-9, AROCLOR 1254, Method: STANDARD PLATE.

As for `O=S(O)S(=O)O`, the mutagenic call (Test System: AMES SALMONELLA TYPHIMURIUM, Strain/Indicator: TA97, Metabolic Activation: NONE, Method: PREINCUBATION) was “inactive; negative”; the mutagenic call (Test System: AMES SALMONELLA TYPHIMURIUM, Strain/Indicator: TA97, Metabolic Activation: RAT, LIVER, S-9, AROCLOR 1254, Method: PREINCUBATION) is “inactive; negative”; the mutagenic call under setting [1] was “inactive; negative”; the mutagenic call (Test System: AMES SALMONELLA TYPHIMURIUM, Strain/Indicator: TA98, Metabolic Activation: RAT LIVER S-9, PHENOBARBITAL AND BETA-NAPHTHOFLAVONE, Method: PREINCUBATION) was “inactive; negative”; the mutagenic call (Test System: AMES SALMONELLA TYPHIMURIUM, Strain/Indicator: TA98, Metabolic Activation: RAT, LIVER, S-9, KC 500, Method: PREINCUBATION) was “inactive; negative”; the mutagenic call (Test System: AMES SALMONELLA TYPHIMURIUM, Strain/Indicator: TA100, Metabolic Activation: NONE, Method: PREINCUBATION) was “inactive; negative”. Besides, the mutagenic call is “inactive; negative” (Test System: AMES SALMONELLA TYPHIMURIUM, Strain/Indicator: TA100, Metabolic Activation: RAT LIVER S-9, PHENOBARBITAL AND BETA-NAPHTHOFLAVONE, Method: PREINCUBATION); “inactive; negative” (Test System: AMES SALMONELLA TYPHIMURIUM, Strain/Indicator: TA100, Metabolic Activation: RAT, LIVER, S-9, KC 500, Method: PREINCUBATION); “inactive; negative” under setting [2]; “inactive; negative” (Test System: AMES SALMONELLA TYPHIMURIUM, Strain/Indicator: TA102, Metabolic Activation: RAT, LIVER, S-9, AROCLOR 1254, Method: PREINCUBATION); “inactive; negative” (Test System: AMES SALMONELLA TYPHIMURIUM, Strain/Indicator: TA1535, Metabolic Activation: NONE, Method: PREINCUBATION); “inactive; negative” (Test System: AMES SALMONELLA TYPHIMURIUM, Strain/Indicator: TA1535, Metabolic Activation: RAT LIVER S-9, PHENOBARBITAL AND BETA-NAPHTHOFLAVONE, Method: PREINCUBATION). Besides, the mutagenic call is, setting by setting: (Test System: AMES SALMONELLA TYPHIMURIUM, Strain/Indicator: TA1535, Metabolic Activation: RAT, LIVER, S-9, KC 500, Method: PREINCUBATION) “inactive; negative”; (Test System: AMES SALMONELLA TYPHIMURIUM, Strain/Indicator: TA1537, Metabolic Activation: NONE, Method: PREINCUBATION) “inactive; negative”; (Test System: AMES SALMONELLA TYPHIMURIUM, Strain/Indicator: TA1537, Metabolic Activation: RAT LIVER S-9, PHENOBARBITAL AND BETA-NAPHTHOFLAVONE, Method: PREINCUBATION) “inactive; negative”; (Test System: AMES SALMONELLA TYPHIMURIUM, Strain/Indicator: TA1537, Metabolic Activation: RAT, LIVER, S-9, KC 500, Method: PREINCUBATION) “inactive; negative”; (Test System: AMES SALMONELLA TYPHIMURIUM, Strain/Indicator: TA1538, Metabolic Activation: NONE, Method: PREINCUBATION) “inactive; negative”; (Test System: AMES SALMONELLA TYPHIMURIUM, Strain/Indicator: TA1538, Metabolic Activation: RAT LIVER S-9, PHENOBARBITAL AND BETA-NAPHTHOFLAVONE, Method: PREINCUBATION) “inactive; negative”. Besides, the mutagenic call is “inactive; negative” (Test System: AMES SALMONELLA TYPHIMURIUM, Strain/Indicator: TA1538, Metabolic Activation: RAT, LIVER, S-9, KC 500, Method: PREINCUBATION); “inactive; negative” (Test System: E. COLI, Strain/Indicator: WP2 UVRA, Metabolic Activation: NONE, Method: PREINCUBATION); “inactive; negative” (Test System: E. COLI, Strain/Indicator: WP2UVRA, Metabolic Activation: NONE, Method: PREINCUBATION); “inactive; negative” (Test System: E. COLI, Strain/Indicator: WP2UVRA, Metabolic Activation: RAT LIVER S-9, PHENOBARBITAL AND BETA-NAPHTHOFLAVONE, Method: PREINCUBATION); “inactive; negative” (Test System: E. COLI, Strain/Indicator: WP2 UVRA, Metabolic Activation: RAT, LIVER, S-9, KC 500, Method: PREINCUBATION).
As to `Nc1ccc([N+](=O)[O-])c(O)c1`, the mutagenic call under setting [3] is “inactive; negative”; the mutagenic call under setting [4] is “inactive; negative”; the mutagenic call under setting [5] was “inactive; negative”; the mutagenic call under setting [6] was “inactive; negative”; the mutagenic call under setting [7] is “inactive; negative”; the mutagenic call under setting [8] is “inactive; negative”. In addition, the mutagenic call by setting is: under setting [9], “inactive; negative”; under setting [10], “inactive; negative”.
Consider `CC(=O)N=C1C=CC(=O)C=C1`, for which the mutagenic call is “inactive; negative” under setting [1]; “inactive; negative” under setting [2]; “inactive; negative” (Test System: UDS MOUSE HEPATOCYTES, Strain/Indicator: THY INCORP (NON-S-PHASE), Metabolic Activation: NONE, Method: LIQUID SCINTILLATION COUNTING).
Consider `Nc1nc2c(s1)CC[C@@H]1NCCC[C@@H]21`, for which, under setting [11], the mutagenic call was “inactive; negative”.
With `N=c1ccc2nc3ccc(N)cc3sc-2c1`, the mutagenic call was “active; positive” under setting [3]; “active; positive” under setting [12]; “inactive; negative” under setting [6]; “inactive; negative” under setting [7]; “inactive; negative” under setting [8]; “inactive; negative” under setting [9]. Moreover, the mutagenic call is “active; positive” under setting [10] and “active; positive” under setting [11].
In the case of `CN(C)CC/C=C1\c2ccccc2COc2ccccc21`, the mutagenic call is “inactive; negative” under setting [3]; “inactive; negative” under setting [12]; “inactive; negative” under setting [4]; “inactive; negative” under setting [5]; “inactive; negative” under setting [6]; “inactive; negative” under setting [7]. Further, the mutagenic call reads like this: under setting [8], “inactive; negative”; under setting [9], “inactive; negative”.
